The text below walks through data of ChEMBL document CHEMBL1135978, “Three-dimensional quantitative structure-activity relationship of 1,4-dihydropyridines as antitubercular agents” (2002).

This experiment deals with Mycobacterium tuberculosis. The experiment is described as follows: Antitubercular activity against Mycobacterium tuberculosis H37Rv ATCC 27294. The format is functional. More on the design: concentration or dose not given beside the values; unit not given here.

With `CC1=C(C(=O)Nc2ccccc2Cl)C(c2ccc(Cl)cc2Cl)C(C(=O)Nc2ccccc2Cl)=C(C)N1`, the Inhibition is -0.9079.

With `CSc1ccc(C2C(C(=O)Nc3ccccc3)=C(C)NC(C)=C2C(=O)Nc2ccccc2)cc1`, the Inhibition is listed as 0.3474.

For `CC1=C(C(=O)Nc2ccc([N+](=O)[O-])cc2)C(c2ccccc2Cl)C(C(=O)Nc2ccc([N+](=O)[O-])cc2)=C(C)N1`, the Inhibition is 1.2787.

Compound `CC1=C(C(=O)Nc2ccccc2Cl)C(c2ccccc2O)C(C(=O)Nc2ccccc2Cl)=C(C)N1` gave an Inhibition of -1.1949.

`CC1=C(C(=O)Nc2ccc([N+](=O)[O-])cc2)C(c2ccc(Cl)cc2Cl)C(C(=O)Nc2ccc([N+](=O)[O-])cc2)=C(C)N1` displayed an Inhibition of 1.3802.

`CC1=C(C(=O)Nc2cccc([N+](=O)[O-])c2)C(c2ccc(Cl)cc2Cl)C(C(=O)Nc2cccc([N+](=O)[O-])c2)=C(C)N1`: the Inhibition stood at 1.6901.

As to `COc1ccccc1NC(=O)C1=C(C)NC(C)=C(C(=O)Nc2ccccc2OC)C1c1ccc(N(C)C)cc1`, the Inhibition worked out at 1.1233.

Consider `CC1=C(C(=O)Nc2ccc(Cl)cc2)C(c2ccc(O)cc2)C(C(=O)Nc2ccc(Cl)cc2)=C(C)N1`, for which the Inhibition was 0.575.

Regarding `CC1=C(C(=O)Nc2cc(C)ccc2C)C(c2ccccc2O)C(C(=O)Nc2cc(C)ccc2C)=C(C)N1`, the Inhibition was -0.432.

Compound `COc1ccccc1NC(=O)C1=C(C)NC(C)=C(C(=O)Nc2ccccc2OC)C1c1cccc([N+](=O)[O-])c1` yielded an Inhibition of 0.2498.

For `CSc1ccc(C2C(C(=O)Nc3ccc(C)cc3C)=C(C)NC(C)=C2C(=O)Nc2ccc(C)cc2C)cc1`, the Inhibition is 0.158.

The compound `COc1ccc(C2C(C(=O)Nc3ccccc3Cl)=C(C)NC(C)=C2C(=O)Nc2ccccc2Cl)cc1` came in with an Inhibition of -0.3679.

Compound `CC1=C(C(=O)Nc2ccc([N+](=O)[O-])cc2)C(c2ccc(Cl)cc2)C(C(=O)Nc2ccc([N+](=O)[O-])cc2)=C(C)N1` registered an Inhibition of 0.2126.

Take `CC1=C(C(=O)Nc2ccccc2Cl)C(c2ccccc2S)C(C(=O)Nc2ccccc2Cl)=C(C)N1`: the Inhibition was -0.954.

For the compound `CC1=C(C(=O)Nc2cccc([N+](=O)[O-])c2)C(c2ccccc2O)C(C(=O)Nc2cccc([N+](=O)[O-])c2)=C(C)N1`, the Inhibition turned out to be 1.0606.

For the compound `CSc1ccc(C2C(C(=O)Nc3ccc([N+](=O)[O-])cc3)=C(C)NC(C)=C2C(=O)Nc2ccc([N+](=O)[O-])cc2)cc1`, the Inhibition came to 1.5096.

Compound `CC1=C(C(=O)Nc2ccc(C)cc2C)C(c2ccccc2)C(C(=O)Nc2ccc(C)cc2C)=C(C)N1` came in with an Inhibition of -0.865.

As to `CC1=C(C(=O)Nc2ccccc2Cl)C(c2ccccc2Cl)C(C(=O)Nc2ccccc2Cl)=C(C)N1`, the Inhibition is -0.6585.

For `CC1=C(C(=O)Nc2ccc(C)cc2C)C(c2cccc([N+](=O)[O-])c2)C(C(=O)Nc2ccc(C)cc2C)=C(C)N1`, the Inhibition was determined as 0.0521.

Compound `CC1=C(C(=O)Nc2cccc([N+](=O)[O-])c2)C(c2ccccc2)C(C(=O)Nc2cccc([N+](=O)[O-])c2)=C(C)N1` returned an Inhibition of 1.1949.

On to `COc1ccc(C2C(C(=O)Nc3cc(C)ccc3C)=C(C)NC(C)=C2C(=O)Nc2cc(C)ccc2C)cc1`, for which the Inhibition is given as -0.158.

`COc1ccccc1NC(=O)C1=C(C)NC(C)=C(C(=O)Nc2ccccc2OC)C1c1ccc(Cl)cc1Cl`: the Inhibition is 1.0047.

In turn, `COc1ccccc1NC(=O)C1=C(C)NC(C)=C(C(=O)Nc2ccccc2OC)C1c1ccc(SC)cc1` showed an Inhibition of 1.1233.

On to `CSc1ccc(C2C(C(=O)Nc3cccc([N+](=O)[O-])c3)=C(C)NC(C)=C2C(=O)Nc2cccc([N+](=O)[O-])c2)cc1`, for which the Inhibition was 1.6901.

With `CC1=C(C(=O)Nc2cccc([N+](=O)[O-])c2)C(c2ccccc2Cl)C(C(=O)Nc2cccc([N+](=O)[O-])c2)=C(C)N1`, the Inhibition is 1.5096.

Turning to `CC1=C(C(=O)Nc2ccc(Cl)cc2)C(c2cccc([N+](=O)[O-])c2)C(C(=O)Nc2ccc(Cl)cc2)=C(C)N1`, the Inhibition is recorded as -0.3888.

`CSc1ccc(C2C(C(=O)Nc3ccccc3Cl)=C(C)NC(C)=C2C(=O)Nc2ccccc2Cl)cc1`: the Inhibition was 0.55.

Compound `COc1cc(C2C(C(=O)Nc3ccc(Cl)cc3)=C(C)NC(C)=C2C(=O)Nc2ccc(Cl)cc2)cc(OC)c1OC` showed an Inhibition of 1.1949.

In turn, `COc1ccc(C2C(C(=O)Nc3ccc(Cl)cc3)=C(C)NC(C)=C2C(=O)Nc2ccc(Cl)cc2)c(O)c1` had an Inhibition of 0.63.

For the compound `CC1=C(C(=O)Nc2ccccc2Cl)C(c2ccc(Cl)cc2)C(C(=O)Nc2ccccc2Cl)=C(C)N1`, the Inhibition is listed as -0.6886.
